Columns and labels:
Assay type in all cases: cell-based
NCIH460 = assay: Anti-cancer screen (MTT), NCIH460; settings: Homo sapiens, NCI-H460, 48 hours with compound, tested at 0.01-100 µM
Method: (§1) Experimental drugs are screened for anti-cancer activity in three cell lines for their GI50, TGI and LC50 values (using five concentrations for each compound). The cell lines are maintained in DMEM containing 10% fetal bovine serum. 96 well micro titer plates are inoculated with cells in 100 µL for 24 hours at 37° C., 5% CO2, 95% air and 100% relative humidity. 5000 HCT 116 cells/well, 5000 NCIH 460 cells/well and 5000 U251 cells/well are plated. A separate plate with these cell lines is also inoculated to determine cell viability before the addition of the compounds (T0).
(§2) Following 24-hour incubation, experimental drugs are added to the 96 well plates. Each plate contains one of the above cell lines and the following in triplicate: five different concentrations (0.01, 0.1, 1, 10 and 100 µM) of four different compounds, appropriate dilutions of a cytotoxic standard and control (untreated) wells. Compounds are dissolved in DMSO to make 20 mM stock solutions on the day of drug addition and frozen at −20° C. Serial dilutions of these 20 mM stock solutions are made in complete growth medium such that 100 µL of these drug solutions in medium, of final concentrations equaling 0.01, 0.1, 1, 10 and 100 µM can be added to the cells in triplicate. Standard drugs whose anti-cancer activity has been well documented and which are regularly used are doxorubicin and SAHA.
(§3) For T0 measurement, 24 hours after seeding the cells, 10 µL of 3-(4,5-Dimethyl-2-thiazolyl)-2,5-diphenyl-2H-tetrazolium (MTT) solution per well is added and incubation carried out for 3 hours at 37° C., 5% CO2, 95% air and 100% relative humidity, protected from light. Cells incubated with compounds for 48 hours are treated similarly except with the addition of 20 µl MTT solution per well and a subsequent incubation under the same conditions. After 3 hours of MTT incubation, well contents are aspirated carefully followed by addition of 150 µL DMSO per well. Plates are agitated to ensure solution of the formazan crystals in DMSO and absorbance read at 570 nm.
(§4) Percent growth is calculated for each compound's concentration relative to the control and zero measurement wells (T0; viability right before compound addition). If a test well's O.D. value is greater than the T0 measurement for that cell line
(§5) %Growth=(test−zero)/(control−zero)×100
(§6) If a test well's O.D. value is lower than the T0 measurement for that cell line, then,
(§7) %Growth=(test−zero)/zero×100

[1] = tested on: NCIH460, HCT116, MDAMB-231/U 251; assay: Anti-cancer screen, mean GI50 over the cell lines; settings: in µM
Method: as §1, §2, §3, §4

HCT116 = assay: Anti-cancer screen (MTT), HCT116; settings: Homo sapiens, HCT-116, 48 hours with compound, tested at 0.01-100 µM
Method: as §1, §2, §3, §4, §5, §6, §7

MDAMB-231/U 251 = assay: Anti-cancer screen (MTT), MDAMB-231/U 251; settings: for CC50: 48 h, read-out: MDAMB-231/U 251 LC50; for GI50 / IC (TGI): 48 hours with compound, MTT, tested at 0.01-100 µM
Method: as §1, §2, §3, §4, §5, §6, §7

Row | Compound | GI50 (NCIH460) | IC (TGI) (NCIH460) | LC50 (NCIH460) | Mean GI50 [1] | GI50 (HCT116) | IC (TGI) (HCT116) | LC50 (concentration giving 50% net cell kill relative to T0) (HCT116) | CC50 (MDAMB-231/U 251) | GI50 (MDAMB-231/U 251) | IC (TGI) (MDAMB-231/U 251)
1 | O=C(NCc1ccc(C(=O)NO)cc1)OCc1c(F)c(F)c(F)c(F)c1F [Example 29, Pentafluorobenzyl{4-[(hydroxyamino)carbonyl]benzyl}carbamate] | 0.4 µM | 22.5 µM | 82.5 µM | 1.5 | 0.98 µM | 3.5 µM | 48 µM | > 100 µM | 3.1 µM | > 100 µM
2 | CNC(=O)c1ccc(CNC(=O)OCC2COc3ccccc3O2)cc1 (stereo not shown) [Example 42, 2,3-Dihydro-1,4-benzodioxin-2-ylmethyl{4-[(methylamino)carbonyl]benzyl}carbamate] | > 100 µM | > 100 µM | > 100 µM | >100 | > 100 µM | > 100 µM | > 100 µM | > 100 µM | 0.7 µM | > 100 µM
3 | O=C(CCCNC(=O)Cc1csc(NC(=O)OCc2c(F)c(F)c(F)c(F)c2F)n1)NO [Example 92, Pentafluorobenzyl[4-(2-{[4-(hydroxyamino)-4-oxobutyl]amino}-2-oxoethyl)-1,3-thiazol-2-yl]carbamate] | > 100 µM | > 100 µM | > 100 µM | >100 | > 100 µM | > 100 µM | > 100 µM | > 100 µM | 30 µM | 50 µM
4 | O=C(NCc1ccc(C(=O)NCCO)cc1)OCc1cccs1 [Example 61, 2-Thienylmethyl(4-{[(2-hydroxyethyl)amino]carbonyl}benzyl)carbamate] | > 100 µM | > 100 µM | > 100 µM | >100 | > 100 µM | > 100 µM | > 100 µM | > 100 µM | 65 µM | > 100 µM
5 | O=C(CCCCCNC(=O)Cc1csc(NC(=O)OCc2c(F)c(F)c(F)c(F)c2F)n1)NO [Example 94, Pentafluorobenzyl[4-(2-{[6-(hydroxyamino)-6-oxohexyl]amino}-2-oxoethyl)-1,3-thiazol-2-yl]carbamate] | 35 µM | 67 µM | > 100 µM | 25.66 | 23 µM | 62 µM | 84 µM | 84 µM | 19 µM | 50 µM
6 | CON(C)C(=O)Cc1csc(NC(=O)OCc2cccnc2)n1 [Example 14, Pyridin-3-ylmethyl(4-{2-[methoxy(methyl)amino]-2-oxoethyl}-1,3-thiazol-2-yl)carbamate] | 10 µM | > 100 µM | > 100 µM | 45 | 80 µM | > 100 µM | > 100 µM | > 100 µM | > 100 µM | > 100 µM
7 | O=C(Nc1nc(CC(=O)N2CCC(N3CCCCC3)CC2)cs1)OCc1cccnc1 [Example 13, Pyridin-3-ylmethyl{4-[2-(1,4′-bipiperidin-1′-yl)-2-oxoethyl]-1,3-thiazol-2-yl}carbamate] | 2.8 µM | 25 µM | > 100 µM | >100 | > 100 µM | > 100 µM | > 100 µM | > 100 µM | 0.09 µM | > 100 µM
8 | O=C(CCCNC(=O)Cc1csc(NC(=O)OCc2cccnc2)n1)NO [Example 88, Pyridin-3-ylmethyl[4-(2-{[4-(hydroxyamino)-4-oxobutyl]amino}-2-oxoethyl)-1,3-thiazol-2-yl]carbamate] | > 100 µM | > 100 µM | > 100 µM | >100 | > 100 µM | > 100 µM | > 100 µM | > 100 µM | 6 µM | > 100 µM
9 | COc1cc(COC(=O)NCc2ccc(C(=O)NO)cc2)cc(OC)c1OC [Example 36, 3,4,5-Trimethoxybenzyl{4-[(hydroxyamino)carbonyl]benzyl}carbamate] | 68 µM | > 100 µM | > 100 µM | 36.2 | 35 µM | 60 µM | 85 µM | 85 µM | 5.5 µM | 10 µM
10 | CN(C)C(=O)Cc1csc(NC(=O)OCc2cccnc2)n1 [Example 16, Pyridin-3-ylmethyl{4-[2-(dimethylamino)-2-oxoethyl]-1,3-thiazol-2-yl}carbamate] | 8 µM | > 100 µM | > 100 µM | 14 | > 100 µM | > 100 µM | > 100 µM | > 100 µM | 20 µM | > 100 µM
11 | CNC(=O)Cc1csc(NC(=O)OCc2cccnc2)n1 [Example 15, Pyridin-3-ylmethyl{4-[2-(methylamino)-2-oxoethyl]-1,3-thiazol-2-yl}carbamate] | 60 µM | > 100 µM | > 100 µM | 73.3 | 100 µM | > 100 µM | > 100 µM | > 100 µM | 60 µM | > 100 µM
12 | O=C(NCc1ccc(C(=O)NO)cc1)OCc1ccc(C(F)(F)F)cc1 [Example 35, 4-(Trifluoromethyl)benzyl{4-[(hydroxyamino)carbonyl]benzyl}carbamate] | 20 µM | 50 µM | 80 µM | 8.4 | 5 µM | 12 µM | 60 µM | 70 µM | 0.05 µM | 15 µM
13 | O=C(CCCCCNC(=O)c1ccc(CNC(=O)OCc2cccs2)cc1)Nc1nnc(C2CC2)s1 [Example 103] | 60 µM | > 100 µM | > 100 µM | 33.5 | 40 µM | > 100 µM | > 100 µM | 85 µM | 0.4 µM | 18 µM
14 | O=C(NCc1ccc(C(=O)NO)cc1)OCc1c(F)cc(F)cc1F [Example 38, 2,4,6-Trifluorobenzyl{4-[(hydroxyamino)carbonyl]benzyl}carbamate] | 22 µM | 52 µM | 82 µM | 9.2 | 5 µM | 20 µM | 65 µM | 68 µM | 0.5 µM | 8 µM
15 | O=C(NCc1ccc(C(=O)NO)cc1)OCCSc1nc2ccccc2s1 [Example 39, 2-(1,3-Benzothiazol-2-ylthio)ethyl{4-[(hydroxyamino)carbonyl]benzyl}carbamate] | 16 µM | 54 µM | 82 µM | 7.3 | 5.5 µM | 10 µM | 62 µM | 65 µM | 0.4 µM | 5 µM
16 | O=C(NCc1ccc(C(=O)N2CCN(Cc3ccc4c(c3)OCO4)CC2)cc1)OCc1c(F)cc(F)cc1F [Example 62, 2,4,6-Trifluorobenzyl(4-{[4-(1,3-benzodioxol-5-ylmethyl)piperazin-1-yl]carbonyl}benzyl)carbamate] | 0.1 µM | 8.5 µM | > 100 µM | 1.7 | 3 µM | > 100 µM | > 100 µM | > 100 µM | 2 µM | 10 µM
